In article PMC10778758, “Dithioethanol (DTE)-Conjugated Deoxyribose Cyclic Dinucleotide Prodrugs (DTE-dCDNs) as STING Agonist” (International Journal of Molecular Sciences, 2023):

Columns and labels:
[1] = In vitro serum stability assay in 20% fetal bovine serum; assay type: in vitro ADME; details: bovine, 20% fetal bovine serum, pH 7.4, 20% FBS, 37 °C, read-out: T1/2 (half-life period) (converted)
Protocol: In vitro serum stability assay. Each compound (100 μM) was incubated at 37 °C in the reaction buffer including 20% fetal bovine serum (FBS, GIBCO, Thermo Fisher Scientific, Waltham, MA, USA), 10 mM PBS (pH 7.4), and 1 mM MgCl2. At various times, aliquots of the reaction mixture were collected and stopped by adding 50 μL MeCN and diluted with 50 μL water. The reaction mixture was then centrifuged at 10,000 rpm for 5 min, leaving 100 μL supernatant for the HPLC assay. An amount of 10 μL of each aliquot was injected directly into HPLC (Agilent 1260 Infinity HPLC equipped with a UV detector; column Agilent ZORABX SB-C18 5 μm [4.6 × 150 mm; detection at 254 nm; column temperature 25 °C] for analysis. Amounts of 10 mM TEAA buffer (solvent A) and MeCN (solvent B) were used as the mobile phase with a flow rate of 1 mL/min. The gradient was set as the following: 0–2 min: 98% A/2% B; 2–6 min: 98% A/2% B to 100% B; 6–10 min: 100% B; 10–13 min: 100% B to 98% A/2% B; 13–15 min: 98% A/2% B. The % remaining of the test compounds after incubation in the serum was then calculated.
Figure 4 Parent dCDN of DTE-dCDN prodrug 9 retained a high serum stability. The serum stability analysis of (a) prodrug 9, (b) 3′,3′-c-di-dAMP, (c) 2′,3′-cGAMP and (d) ADU-S100 were determined in 20% FBS. Each compound (100 μM) was incubated in 20% FBS at 37 °C. At various times (0, 2, 4, 8, 12, 24, 48, 72 h), aliquots of the reaction mixture were analyzed with HPLC at 254 nm. The % remaining of test compounds after incubation in serum was calculated.

CT-26 cells = experiment: RT-qPCR of IFN-β mRNA in CT-26 cells; assay type: cell-based; details: CT-26, prodrug 9 and ADU-S100 10 μM, CDNs 100 μM, 4 h
Protocol: Real-time quantitative PCR (RT-qPCR). The mRNA expression levels of diverse cytokines were measured using quantitative RT-PCR (RT-qPCR) assays. THP-1 cells or CT26 cells were incubated with the compounds for 4 h, subsequently harvested for RNA isolation according to the manufacturer’s instructions of RNApure Tissue&Cell Kit (DNase I) (CWBIO, Cambridge, MA, USA catalogue no. CW0560S). Next, 1 μg RNA was reversely transcribed to cDNA by TransScript All-in-One First-Strand cDNA Synthesis SuperMix for qPCR (One-Step gDNA Removal) (TransGen, Beijing, China). To examine the mRNA levels, real-time PCR was performed in a CFX96 Real-Time PCR system (Bio-RAD, Hercules, CA, USA) using PerfectStart Green qPCR Super Mix (TransGen) and primers (Sangon Biotech, Shanghai, China). The expression level was calculated according to the formula (2^−∆∆Ct) using the GAPDH or β-actin as the internal reference gene and the relative gene expression fold was normalized to the DMSO-treated cells. The THP-1 and CT26 cell lines were obtained from American Type Culture Collection (ATCC, Manassas, VA, USA). […]
(§1) expression levels of IFN-β were assessed by real-time quantitative PCR (qPCR) under the treatment of prodrug 9 (10 μM), 3′,3′-c-di-dAMP (100 μM), 2′,3′-cGAMP (100 μM) and ADU-S100 (10 μM) for 4 h.
Figure S3. […]
levels of IFN-β were assessed by an enzyme-linked immunosorbent assay (ELISA). […]

THP-1 cells [2] = experiment: ELISA of IFN-β protein levels in THP-1 culture supernatants; assay type: cell-based, human; details: 4 h
Protocol: Enzyme-Linked Immunosorbent Assay (ELISA). THP-1 cells were incubated with the compounds for 4 h. Cell culture supernatants were then analyzed via ELISA for human IFN-β levels (ABclonal, Woburn, MA, USA, catalogue no. RK01630) according to the manufacturer’s instructions. […]
as §1
Figure S3. Prodrug 9 stimulated the production of IFN-β in THP-1 cells. Under the treatment of prodrug […]
levels of IFN-β were assessed by an enzyme-linked immunosorbent assay (ELISA).
(also on this page, place not known: t reatment -S100 9 3',3'-c-di-dAMPADU-S100 IFN-β/β-actin IFN-β in Culture Medium (pg/ml)) […]

HEK293T cells = experiment: CCK8 cell viability, HEK293T cells; assay type: cell-based; details: 10 μM, 24 h
Protocol: Cell viability of THP-1 and HEK293T cells. A total of 5 × 10^3 HEK293T cells or THP-1 cells were seeded in 96-well plates. […] Cell counting kit-8 (CCK8) (US EVERBRIGHT, Newport Beach, CA, USA, c6005) was then used to quantitatively assess the cell viability through the OD value at 450 nm. The HEK293T cell line was obtained from American Type Culture Collection (ATCC).
Figure 8 Cell viability of THP-1 and HEK293T cells stimulated by prodrug 9 and 2′,3′-cGAMP. (a) A total of 5 × 10^3 THP-1 cells or (b) HEK293T cells were seeded in 96-well plates. Cells were stimulated with prodrug 9 (10 μM), 3′,3′-c-di-dAMP (100 μM), and 2′,3′-cGAMP (100 μM) for 24 h. Then, cell counting kit-8 (CCK8) (US EVERBRIGHT, c6005) was used to quantitatively assess cell viability through the OD value at 450 nm. Data are presented as mean ± SD, n = 3.

THP-1 cells [3] = details: human, 10 μM
Protocol: Uptake of DTE-dCDN Prodrug. THP-1 cells were seeded at a concentration of 5 × 10^6 cells/mL into a 12-well plate. After 16 h of incubation at 37 °C in a 5% CO2 atmosphere, the compounds were added to cell cultures and the cells were collected at time points of 1 h, 2 h, 4 h, 6 h, 8 h, 12 h, and 24 h by centrifugation for 1 min at 1000× g. The media was removed completely, and the cells were washed twice with 800 μL of ice-cold PBS before being lysed with 400 μL ice-cold 70% methanol. Lysates were incubated overnight at −20 °C and then centrifuged for 20 min at 13,000× g to remove cellular debris. The supernatant was analyzed via LC/MS/MS (Agilent 1290 Infinity II/6470A)
(a) The intracellular concentration of the prodrug 9 in THP-1 cells. (b) The intracellular concentration of the parent dCDN (3′,3′-c-di-dAMP) in THP-1 cells. THP-1 cells were treated with 10 μM prodrug 9 or 100 μM parent dCDN (3′,3′-c-di-dAMP) for the indicated period of time (1, 2, 4, 6, 8, 12, 24 h), and the intracellular concentration of the metabolites in cellular extracts was determined with liquid chromatograph MS/MS analysis.

- half-life at 100 μM [1]: 28 h
- time at which intracellular levels of prodrug 9 peaked (THP-1 cells [3]): 2 h
Compound: Nc1ncnc2c1ncn2C1CC2OP(=O)(OCCSSc3ccccn3)OCC3OC(n4cnc5c(N)ncnc54)CC3OP(=O)(OCCSSc3ccccn3)OCC2O1 (stereo not shown) [prodrug 9]
- induction of IFN-β transcription in CT-26 cells (CT-26 cells): did not
- IFN-β protein level, fold compared to 2′,3′-cGAMP (THP-1 cells [2]; THP-1, prodrug 9 10 μM vs 2′,3′-cGAMP 100 μM): approximately 66 fold
- IFN-β protein level, fold compared to 3′,3′-c-di-dAMP (THP-1 cells [2]; THP-1, prodrug 9 10 μM vs 3′,3′-c-di-dAMP 100 μM): ~4.3 fold
- IFN-β protein level, fold compared to ADU-S100 (THP-1 cells [2]; THP-1, prodrug 9 10 μM vs ADU-S100 10 μM): ~5.6 fold
- cell viability (CCK8), HEK293T cells (HEK293T cells): no significant influence on the growth
